Assay in all cases: two-electrode voltage clamp, Xenopus oocytes
Holding throughout (format): cell-based
Background: Two-electrode voltage clamp holds a large cell at a set potential and records current.

Assay [1] concerns the target T1, GIRK4 homomeric channel (GIRK4, G4) (Homo sapiens, UniProt P48544, L77I).
T1 construct: gene KCNJ5; full-length GIRK4 in pGEMSH vector, homotetramer, expressed in Xenopus laevis oocytes
T1 sequence (P48544 1-419 L77I): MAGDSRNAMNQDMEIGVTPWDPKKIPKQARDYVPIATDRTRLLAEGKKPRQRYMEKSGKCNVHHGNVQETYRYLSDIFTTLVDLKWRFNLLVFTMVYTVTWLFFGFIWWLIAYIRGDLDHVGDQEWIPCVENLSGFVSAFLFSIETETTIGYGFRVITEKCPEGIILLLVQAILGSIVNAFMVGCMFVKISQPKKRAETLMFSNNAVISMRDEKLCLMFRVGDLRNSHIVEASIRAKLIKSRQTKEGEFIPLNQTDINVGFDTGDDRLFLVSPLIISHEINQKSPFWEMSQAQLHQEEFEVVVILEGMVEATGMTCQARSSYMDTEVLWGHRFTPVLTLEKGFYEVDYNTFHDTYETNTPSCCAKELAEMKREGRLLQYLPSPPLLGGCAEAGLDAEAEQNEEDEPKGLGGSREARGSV
The note with it: activator, high potassium ND96K.

In assay [2] the target is T2, GIRK4 homomeric channel (GIRK4, G4) (Homo sapiens, UniProt P48544, I177V).
T2 construct: gene KCNJ5; full-length GIRK4 in pGEMSH vector, homotetramer, expressed in Xenopus laevis oocytes
T2 sequence (P48544 1-419 I177V): T1 sequence (P48544 1-419 L77I) with I77L, I177V
The note with it: activator, high potassium ND96K.

Assay [3] concerns the target T3, GIRK4 homomeric channel (GIRK4, G4) (Homo sapiens, UniProt P48544, S75T).
T3 construct: gene KCNJ5; full-length GIRK4 in pGEMSH vector, homotetramer, expressed in Xenopus laevis oocytes
T3 sequence (P48544 1-419 S75T): T1 sequence (P48544 1-419 L77I) with S75T, I77L
Particulars: activator, high potassium ND96K.

Assay [4] addresses T4, GIRK4 homomeric channel (GIRK4, G4) (Homo sapiens, UniProt P48544, F181A).
T4 construct: gene KCNJ5; full-length GIRK4 in pGEMSH vector, homotetramer, expressed in Xenopus laevis oocytes
T4 sequence (P48544 1-419 F181A): T1 sequence (P48544 1-419 L77I) with I77L, F181A
Particulars: activator, high potassium ND96K.

In assay [5] the target is T5, GIRK4 homomeric channel (GIRK4, G4) (Homo sapiens, UniProt P48544).
T5 construct: gene KCNJ5; full-length GIRK4 in pGEMSH vector, homotetramer, expressed in Xenopus laevis oocytes
T5 sequence (P48544 1-419): T1 sequence (P48544 1-419 L77I) with I77L

The target of assay [6] is T6, GIRK4 homomeric channel (GIRK4, G4) (Homo sapiens, UniProt P48544, L90A).
T6 construct: gene KCNJ5; full-length GIRK4 in pGEMSH vector, homotetramer, expressed in Xenopus laevis oocytes
T6 sequence (P48544 1-419 L90A): T1 sequence (P48544 1-419 L77I) with I77L, L90A
The note with it: activator, high potassium ND96K.

Assay [7] addresses T7, GIRK4 homomeric channel (GIRK4, G4) (Homo sapiens, UniProt P48544, S75A).
T7 construct: gene KCNJ5; full-length GIRK4 in pGEMSH vector, homotetramer, expressed in Xenopus laevis oocytes
T7 sequence (P48544 1-419 S75A): T1 sequence (P48544 1-419 L77I) with S75A, I77L
The note with it: activator, high potassium ND96K.

Assay [8] has as its target T8, GIRK2∗ (GIRK2:E152D) (Mus musculus, UniProt P48542, I82L/E152D).
T8 construct: gene Kcnj6; GIRK2 E152D in pXOOM vector, homotetramer, expressed in Xenopus laevis oocytes
T8 sequence (P48542 1-425 I82L/E152D): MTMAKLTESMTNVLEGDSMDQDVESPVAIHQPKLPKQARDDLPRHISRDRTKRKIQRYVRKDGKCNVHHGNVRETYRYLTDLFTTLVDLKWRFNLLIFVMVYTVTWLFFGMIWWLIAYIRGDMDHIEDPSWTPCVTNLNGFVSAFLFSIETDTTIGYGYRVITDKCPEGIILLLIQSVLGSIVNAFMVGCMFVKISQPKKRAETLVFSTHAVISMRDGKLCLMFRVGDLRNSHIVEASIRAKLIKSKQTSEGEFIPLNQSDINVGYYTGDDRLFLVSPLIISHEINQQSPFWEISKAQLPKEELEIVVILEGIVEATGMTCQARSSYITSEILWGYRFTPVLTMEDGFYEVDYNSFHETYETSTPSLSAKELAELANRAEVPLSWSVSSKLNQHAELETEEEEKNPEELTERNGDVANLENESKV
The note with it: activator, high potassium ND96K.

For assay [9], the target named is T9, GIRK4 homomeric channel (GIRK4, G4) (Homo sapiens, UniProt P48544, G247R).
T9 construct: gene KCNJ5; full-length GIRK4 in pGEMSH vector, homotetramer, expressed in Xenopus laevis oocytes
T9 sequence (P48544 1-419 G247R): T1 sequence (P48544 1-419 L77I) with I77L, G247R
Particulars: activator, high potassium ND96K.

The target of assay [10] is T10, GIRK2∗ (GIRK2:E152D) (Mus musculus, UniProt P48542, T80S/I82L/E152D).
T10 construct: gene Kcnj6; GIRK2 E152D in pXOOM vector, homotetramer, expressed in Xenopus laevis oocytes
T10 sequence (P48542 1-425 T80S/I82L/E152D): T8 sequence (P48542 1-425 I82L/E152D) with T80S
The note with it: activator, high potassium ND96K.

Molecules are shown by their SMILES. Substitutions are numbered along the chain they refer to.

Take `COc1ccc(C(=O)CC2(O)C(=O)N(Cc3cccc4ccccc34)c3ccccc32)cc1OC` (stereo not shown) [3hi2one-G4, 3-[2-(3,4-dimethoxyphenyl)-2-oxoethyl]-3-hydroxy-1-(1-naphthylmethyl)-1,3-dihydro-2H-indol-2-one]: the “I/Ibasal at 30 μM” value in [1] is “GIRK4:I177V, GIRK4:F181A, and GIRK4:I190A showed reduced 3hi2one-G4–induced currents”; in assay [2] it was “GIRK4:I177V, GIRK4:F181A, and GIRK4:I190A showed reduced 3hi2one-G4–induced currents”; in assay [3] it was “whereas a Thr mutation significantly but partially affected the compound’s effectiveness”; in assay [4], “GIRK4:I177V, GIRK4:F181A, and GIRK4:I190A showed reduced 3hi2one-G4–induced currents”; in assay [6] it was “GIRK4:I177V, GIRK4:F181A, and GIRK4:I190A showed reduced 3hi2one-G4–induced currents”; in assay [7], “Mutation of residue S75 to Ala did not yield a significant change in the ability”. The compound further had an EC50 in [5] of 12.7 µM. For the same compound, the “current at 30 μM” value at GIRK2∗ (GIRK2:E152D) [8] is “GIRK2∗:I82L and GIRK2∗:T80S/I82L but not GIRK2:T80S could be activated by 3hi2one-G4”; in assay [9], “GIRK4:G247R, which is functional, was robustly activated by 3hi2one-G4”; on GIRK2∗ (GIRK2:E152D) [10], “GIRK2∗:I82L and GIRK2∗:T80S/I82L but not GIRK2:T80S could be activated by 3hi2one-G4”.

The term EC50 denotes the concentration giving half of the maximal effect. A higher EC50 goes with weaker potency.

Values taken from publication PMC9194863, “A novel small-molecule selective activator of homomeric GIRK4 channels” (The Journal of Biological Chemistry, 2022).
